Oligonucleotides are written 5' to 3', each unit as a sugar letter and its base; * is a phosphorothioate linkage, no mark a phosphodiester; rarer units and linkages stand in square brackets, end groups in braces. Plain capitals give the bases only. d = 2'-deoxy (DNA)
What was measured:
[1] = tested on: HT-29 human colon cancer cells; experiment: HT-29 colon tumour xenograft in CD-1 nude mice; format: in vivo; conditions: HT-29 (colon); Mouse CD-1; CPT-11 study
Procedure: HT-29 human colon cancer cells (3×10^6 cells in 100 μl of PBS) were subcutaneously injected into the right flank of 6-7 weeks old female CD-1 nude mice. After the size of tumour reached an approximate volume of 50 mm^3, 4 days post tumour cell injection, mitomycin C was administered by bolus infusion into the tail vein at days 4, 11 and 18 with a dose of 3.5 mg/kg/week. Antitumour effect of mitomycin C was further compared to that of SEQ ID NO:1 in combination with mitomycin C. SEQ ID NO:1 was administered by bolus infusion into the tail vein every day at 6 mg/kg and mitomycin C was administered intravenously at days 4, 11 and 18 with a dose of 3.5 mg/kg/week, one hour after the treatments with SEQ ID NO:1. Control animals received saline alone for the same period as SEQ ID NO:1. All treatments were stopped at day 22. A day after the last treatment, tumours were excised from the animals and their weights were measured.
HT-29 human colon cancer cells (3×10^6 cells in 100 μl of PBS) were subcutaneously injected into the right flank of 5-6 week old female CD-1 nude mice. After the size of tumour reached an approximate volume of 100 mm^3, 7 days post tumour cell injection, SEQ ID NO:1 was administered by bolus infusion into the tail vein every other day at 10 mg/kg. Control animals received saline alone for the same period. Antitumour effect of SEQ ID NO:1 was further compared to that of CPT-11 alone or that of SEQ ID NO:1 in combination with CPT-11. CPT-11 was administered intraperitoneally for 5 days in a row from […] with a dose of 20 mg/kg in 100 μl saline. All treatments were stopped at day 32. A day after the last treatment, tumours were excised from the animals and their weights were measured.
HT-29 human colon cancer cells (3×10^6 cells in 100 μl of PBS) were subcutaneously injected into the right flank of 6-7 week old female CD-1 nude mice. Treatments started at day 5 post tumour cell injection, SEQ ID NO:1 and 5-FU were administered as outlined below: • Groups and treatment: • Group 1. Saline treated group: saline:0.1 ml/2 days, i.v.; • Group 2. SEQ ID NO:1 treated group: 10 mg/kg/2 days in 100 μL saline, i.v.; • Group 3. 5-FU treated group:13 mg/kg/5 days/week (one week on and one week off), i.v.; • Group 4. SEQ ID NO:1 plus 5-FU treated group.
HT-29 human colon cancer cells (3×10^6 cells in 100 μl of PBS) were subcutaneously injected into the right flank of 5-6 week old female CD-1 nude mice. Treatments started 4 days post tumour cell injection, SEQ ID NO: 1 and Capecitabine were administered as outlined below: • Group and Treatment: • Group 1: treated with 0.2 ml vehicle solution for capecitabine, o.p.; • Group 2: treated with 0.1 ml saline, i.v.; • Group 3: treated with 359 mg/kg/day×5/w Capecitabine in 0.2 ml vehicle solution, o.p.; • Group 4: treated with 10 mg/kg/2 days SEQ ID NO:1 in 0.1 ml saline i.v.; • Group 5: treated with 10 mg/kg/2 days SEQ ID NO:1 in 0.1 ml saline, i.v. plus 359 mg/kg/day×5/w capecitabine in 0.2 ml vehicle solution, o.p.

[2] = tested on: LS513 multi-drug resistant colon carcinoma cells; experiment: LS513 multi-drug resistant colon carcinoma xenograft in SCID mice; format: in vivo, human; conditions: LS513 (colon) multi-drug resistant (CPT-11 sensitive); SCID
Procedure: LSS13 multi-drug resistant colon carcinoma cells (1×10^7 cells in 100 μl of PBS) were subcutaneously injected into the right flank of 6-7 weeks old female SCID mice. After the size of tumour reached an approximate volume of […], 8 days post tumour cell injection, SEQ ID NO:1 was administered by bolus infusion into the tail vein every other day at 10 mg/kg. Control animals received saline alone for the same period. Antitumour effect of SEQ ID NO:1 was further compared to that of CPT-11 alone or in combination. CPT-11 was administered i.p. for 5 days at a dose of 20 mg/kg/day. Antitumour activities were estimated by the inhibition of tumour volume, which was measured with caliper. Each point represents mean tumour volume calculated from 10 animals per experimental group. Tumour weights were measured after animals were sacrificed at the end of the treatment. These cells are not resistant to CPT-11 which was used as a positive control.

[3] = tested on: A2058 human melanoma cells; experiment: A2058 melanoma xenograft in CD-1 nude mice; format: in vivo; conditions: A2058 (melanoma); Mouse CD-1
Procedure: A2058 human melanoma cells 1×10^7 cells in 100 μl of PBS) were subcutaneously injected into the right flank of 6-7 week old female CD-1 nude mice. A2058 is a metastatic melanoma cell line. After the size of tumour reached an approximate volume of 100 mm^3, 6 days post tumour cell injection, SEQ ID NO:1 was administered by bolus infusion into the tail vein every other day at 10 mg/kg. Control animals received saline alone for the same period. Antitumour effect of SEQ ID NO:1 was further compared to that of dacarbazine (DTIC) alone or that of SEQ ID NO:1 in combination with DTIC. DTIC was administered intravenously for 5 days in a row from day 6-10 at a dose of 80 mg/kg in 100 μl saline. All treatments were stopped at day 24. A day after the last treatment, tumours were excised from the animals and their weights were measured.

[4] = tested on: PC-3 human prostatic cancer cells; experiment: PC-3 prostatic tumour xenograft in SCID mice; format: in vivo
Procedure: In both experiments, PC-3 human prostatic cancer cells (1×10^7 cells in 100 μl of PBS) were subcutaneously injected into the right flank of 6-7 weeks old male SCID mice. After the size of tumour reached an approximate volume of 50 mm^3, 14 days post tumour cell injection, SEQ ID NO:1 was administered by bolus infusion into the tail vein every other day at 10 mg/kg 18 times (FIG. 14A) or 17 times (FIG. 14B), respectively. Control animals received saline alone for the same period. Antitumour effect of SEQ ID NO:1 was further compared to that of mitoxantrone (Novantrone®) alone or in combination. Mitoxantrone was administered intravenously once at the beginning of the treatments at a dose of 2 mg/kg (FIG. 14A) or once a week for four weeks at a reduced dose of 0.8 mg/kg (FIG. 14B). All treatments were stopped at day 50 (FIG. 14A) or 48 (FIG. 14B), respectively. A day after the last treatment, tumours were excised from the animals and their weights were measured.

[5] = tested on: DU145 human prostatic cancer cells; experiment: DU145 prostatic tumour xenograft in SCID mice; format: in vivo; conditions: for Tumour weight as % of saline control: DU145 (prostatic), Mouse SCID
Procedure: In both experiments, DU145 human prostatic cancer cells (1×10^7 cells in 100 μl of PBS) were subcutaneously injected into the right flank of 6-7 weeks old male SCID mice. After the size of tumour reached an approximate volume of 50 mm^3, 13 FIG. 15A) or 11 (FIG. 15B) days post tumour cell injection, SEQ ID NO:1 was administered by bolus infusion into the tail vein every other day at 10 mg/kg 15 times (FIG. 15A) or 14 times (FIG. 15B), respectively. Control animals received saline alone for the same period. Antitumour effect of SEQ ID NO:1 was further compared to that of mitoxantrone (Novantrone®) alone or in combination. Mitoxantrone was administered intravenously once at the beginning of the treatments at a dose of 2 mg/kg (FIG. 15A) or once a week for four weeks at a reduced dose of 0.8 mg/kg (FIG. 15B). All treatments were stopped at day 42 (FIG. 15A) or 38 (FIG. 15B); respectively. A day after the last treatment, tumours were excised from the animals and their weights were measured.

Hela S3 cells = experiment: Relative colony forming efficiency, lipofectin +/- oligonucleotide 4 hours; format: cell-based, human; conditions: Hela S3 cervix carcinoma cells; averages of 2-8 determinations
In short: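 HeLa S3 cells were exposed to phosphorothioate antisense oligonucleotide (0.2 μM unless stated) with lipofectin for 4 h, then grown 7–10 days in 10% FBS medium. Methylene blue-stained colonies were counted and expressed as percent survival relative to lipofectin-only controls.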

A549 lung cell carcinoma = experiment: Relative colony forming efficiency (Example 17, Table 13); format: cell-based, human; conditions: averages of 2-8 determinations
In short: (§1)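 Phosphorothioate antisense oligodeoxynucleotides, at 0.2 μM unless otherwise indicated, were applied with 2.5 μg DOTMA/DOPE (Lipofectin) for 4 h. Colonies stained with methylene blue and scored, with viability sometimes checked by trypan blue exclusion. Values given as % inhibition of colony formation relative to lipofectin-only controls.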

[6] = tested on: Colo320 colon cell adenocarcinoma; experiment: as above; format: cell-based, human; conditions: averages of 2-8 determinations
In short: as §1

[7] = tested on: H596 lung adenosquamous carcinoma cells; experiment: as above; format: cell-based, human; conditions: averages of 2-8 determinations
In short: as §1

[8] = tested on: HCT116 colon cell carcinoma; experiment: as above; format: cell-based, human; conditions: averages of 2-8 determinations
In short: as §1

[9] = tested on: HepG2 hepatocellular carcinoma; experiment: as above; format: cell-based, human; conditions: averages of 2-8 determinations
In short: as §1

[10] = tested on: MDA PaCa-2 pancreatic cell carcinoma; experiment: as above; format: cell-based, human; conditions: MIA PaCa-2 pancreatic cell carcinoma; averages of 2-8 determinations
In short: as §1

[11] = tested on: MDA-MB-231 breast cell adenocarcinoma; experiment: as above; format: cell-based, human; conditions: averages of 2-8 determinations
In short: as §1

[12] = tested on: PC-3 prostrate cell adenocarcinoma; experiment: as above; format: cell-based, human; conditions: averages of 2-8 determinations
In short: as §1

[13] = tested on: T-47D breast ductal carcinoma; experiment: as above; format: cell-based, human; conditions: averages of 2-8 determinations
In short: as §1

[14] = tested on: T24 bladder cell carcinoma; experiment: as above; format: cell-based, human; conditions: averages of 2-8 determinations
In short: as §1

Molecule | Reduced relative colony forming efficiency, Hela S3 (% inhibition of colony forming ability) (Hela S3 cells) | Reduced relative colony forming efficiency, A549 (% inhibition of colony forming ability) (A549 lung cell carcinoma) | Reduced relative colony forming efficiency, Co1o320 (% inhibition of colony forming ability) [6] | Reduced relative colony forming efficiency, 11596 (% inhibition of colony forming ability) [7] | Reduced relative colony forming efficiency, HCT116 (% inhibition of colony forming ability) [8] | Reduced relative colony forming efficiency, HepG2 (% inhibition of colony forming ability) [9] | Reduced relative colony forming efficiency, MIA PaCa-2 (% inhibition of colony forming ability) [10] | Reduced relative colony forming efficiency, MDA-MB-231 (% inhibition of colony forming ability) [11] | Reduced relative colony forming efficiency, PC-3 (% inhibition of colony forming ability) [12] | Reduced relative colony forming efficiency, T-47D (% inhibition of colony forming ability) [13] | also measured
CCc1c2c(nc3ccc(OC(=O)N4CCC(N5CCCCC5)CC4)cc13)-c1cc3c(c(=O)n1C2)COC(=O)[C@]3(O)CC [CPT-11, Irinotecan, reference compound] |  |  |  |  |  |  |  |  |  |  | Tumour weight as % of saline control [1]: 36%; Tumour weight as % of saline control [2]: 47%
CN(C)/N=N/c1[nH]cnc1C(N)=O [DTIC, dacarbazine, reference compound] |  |  |  |  |  |  |  |  |  |  | Tumour weight as % of saline control [3]: 68%
O=C1c2c(O)ccc(O)c2C(=O)c2c(NCCNCCO)ccc(NCCNCCO)c21 [Novantrone, mitoxantrone] |  |  |  |  |  |  |  |  |  |  | antitumour effect (tumour weight) ([4]; FIG. 14B, SEQ ID NO:1 10 mg/kg 17 times, mitoxantrone 0.8 mg/kg once a week for four weeks): significant delay of tumour growth; Tumour weight as % of saline control ([4]; PC-3 (prostatic), Mouse SCID): 57%; Tumour weight as % of saline control ([5]; first of two value columns (two independent experiments)): 40%; Tumour weight as % of saline control ([5]; second of two value columns (two independent experiments)): 60%; antitumour effect (tumour weight) ([5]; FIG. 15B, SEQ ID NO:1 10 mg/kg 14 times, mitoxantrone 0.8 mg/kg once a week for four weeks): significant delay of tumour growth
CCTTGCCCTGAGAGATTCCT (antisense dC*dC*dT*dT*dG*dC*dC*dC*dT*dG*dA*dG*dA*dG*dA*dT*dT*dC*dC*dT) [AS-II-2083-20] | 84.58% | 90.65% | 87.28% | 82.98% | 87.46% | 93.64% | 71% | 68.88% | 32.03% | 89.32% | Reduced relative colony forming efficiency, A549 (% inhibition of colony forming ability) (A549 lung cell carcinoma; listed as AS-II-2083-20 *): 31.73%; Reduced relative colony forming efficiency, Co1o320 (% inhibition of colony forming ability) ([6]; listed as AS-II-2083-20 *): 52.54%; Reduced relative colony forming efficiency, 11596 (% inhibition of colony forming ability) ([7]; listed as AS-II-2083-20 *): 49.37%; Reduced relative colony forming efficiency, HCT116 (% inhibition of colony forming ability) ([8]; listed as AS-II-2083-20 *): 41.16%; Reduced relative colony forming efficiency, HepG2 (% inhibition of colony forming ability) ([9]; listed as AS-II-2083-20 *): 46.14%; Reduced relative colony forming efficiency, T-47D (% inhibition of colony forming ability) ([13]; listed as AS-II-2083-20 *): 43.61%; Reduced relative colony forming efficiency, T24 (% inhibition of colony forming ability) [14]: 82.43%; Reduced relative colony forming efficiency, T24 (% inhibition of colony forming ability) ([14]; listed as AS-II-2083-20 *): 9.52%
GAGCAGCCAGGACAGGACGG (antisense dG*dA*dG*dC*dA*dG*dC*dC*dA*dG*dG*dA*dC*dA*dG*dG*dA*dC*dG*dG) [AS-II-151-20] | 66.75% | 84.28% | 90.12% | 69.12% | 78.09% | 89.53% | 75.38% | 41.64% | 35.68% | 95.39% | 

Source: US20080311126A1, “Antisense Oligonucleotides Directed to Ribonucleotide Reducatase R2 and Uses Thereof in Combination Therapies for the Treatment of Cancer” (Genesense Technologies, Inc, priority 2004, published 2008)
